{"source": "patent US8840886B2", "about": "“Method of treating cancer with DLL4 antagonist and chemotherapeutic agent” (Regeneron Pharmaceuticals, Inc., priority 2009, dated 2014)", "format_in_all_cases": "in vivo, mouse", "key": {"[1]": {"system": "human HCT116 tumor cells (CRC)", "assay": "HCT116 colorectal xenograft tumor growth, REGN421 with 5-FU (Example 5)", "experimental": "The effect of anti-Dll4 Ab (REGN421) in combination with 5-FU on tumor growth was evaluated on tumors implanted in humanized Dll4 SCID mice. Each mouse was implanted subcutaneously (sc) with 5×10^6 human HCT116 tumor cells (CRC). After the tumors were established in the mice (tumor size of ˜150 mm^3, 22 days after implantation), tumors were measured and randomized. The mice were then treated with hFc, REGN421, 5-FU or combination of REGN421 and 5-FU. A total of 30 mice were divided into 6 groups (n=5 per cohort). The first group was treated sc with hFc at 2 mg/kg; the second group was treated sc with REGN421 at 2 mg/kg; the third and fourth groups were treated ip with 5-FU at 15 and 25 mg/kg, respectively; the fifth group was treated sc with REGN421 at 2 mg/kg and ip with 5-FU at 15 mg/kg; and the sixth group was treated sc with REGN421 at 2 mg/kg and ip with 5-FU at 25 mg/kg. REGN421 was administered every 3-4 days starting on day 22 and mice received three doses total. 5-FU was administered every 3-4 days starting on day 22 and mice received three doses total.\n(§1) To assess the effects of REGN421 and 5-FU as single agents or in combination, the changes in tumor size (volume) were measured, beginning three days before the initial REGN421 treatment, and then on the day of each agent treatment (days 22, 26, 29) and thereafter every 3-4 days until tumors reach ˜600 mm^3 in size. In vivo tumor size is calculated using the formula (length×width^2)/2 (FIG. 3 and Table 5)."}, "[2]": {"system": "human VM-Cub1 tumor cells (bladder carcinoma cells)", "assay": "VM-Cub1 bladder carcinoma xenograft tumor growth, REGN421 with cisplatin (Example 1)", "conditions": "for TGI: 4 doses, at day 32; for Euthanized: control cohort euthanized day 32; for TGD: time to 600 mm^3 vs control", "experimental": "The effect of anti-Dll4 antibody (REGN421) in combination with cisplatin (platinol, cis-diamminedichloroplatinum) on tumor growth was evaluated on tumors implanted in Severe Combined Immunodeficiency (SCID) mice expressing a humanized Dll4 protein (humanized Dll4 SCID mice). The humanized Dll4 SCID mouse was made by replacing the entire extracellular domain of the mouse Dll4 gene with the corresponding extracellular region of the human Dll4 gene (7 kb) in embryonic stem (ES) cells. Homozygous hDll4 mice were generated and bred into SCID background.\nEach mouse was implanted subcutaneously (sc) with 1×10^6 human VM-Cub1 tumor cells (bladder carcinoma cells) plus MATRIGEL™ (BD Biosciences, #354234). After the tumors were established in the mice (tumor size of 150-200 mm^3, approximately 14 days after implantation), tumors were measured, randomized and treated with hFc, REGN421, cisplatin, or combination of REGN421 and cisplatin. A total of 45 mice were divided into nine groups (n=5 per cohort). The first group was treated subcutaneously (sc) with hFc at 2 mg/kg; the second and third groups were treated sc with REGN421 at 0.5 and 2 mg/kg, respectively; the fourth and fifth groups were treated intraperitoneally (ip) with cisplatin at 0.5 and 2 mg/kg, respectively; the sixth group was treated sc with REGN421 at 0.5 mg/kg and ip with cisplatin at 0.5 mg/kg; the seventh group was treated sc with REGN421 at 0.5 mg/kg and ip with cisplatin at 2 mg/kg; the eighth group was treated sc with REGN421 at 2 mg/kg and ip with cisplatin at 0.5 mg/kg; and the ninth group was treated sc with REGN421 at 2 mg/kg and ip with cisplatin at 2 mg/kg. REGN421 was administered every 3-4 days starting on day 14 and mice received three doses total. Cisplatin was administered every 24 hours starting on day 14; mice received four doses total.\nTo assess the effects of REGN421 and cisplatin as single agents or in combination treatments, the changes in tumor size were recorded. Tumor growth was measured three days before the initial REGN421 treatment, on the day of each REGN421 treatment (days 14, 17 and 21) and thereafter every 3-4 days until tumors reached ˜600 mm^3 in size. In vivo tumor size was calculated using the formula (length×width^2)/2 (FIG. 1 and Table 1).\nTumor Growth Inhibition, TGI, was determined by calculating the difference in tumor size for treated (T) versus vehicle control (C) tumor at the day the control cohort was euthanized (i.e., at day 32); TGI=[1−(Tfinal−Tinitial)/(Cfinal−Cinitial)]×100.\nTumor growth delay, TGD, was assessed as the difference in days between treated (T) versus control (C) tumors when each cohort reached a specified tumor size. The predetermined tumor size for this experiment was 600 mm^3."}, "[3]": {"system": "human A549 tumor cells (non-small cell lung cancer)", "assay": "A549 NSCLC xenograft tumor growth, REGN421 with cisplatin (Example 2)", "experimental": "The effect of REGN421 in combination with cisplatin on tumor growth was evaluated on tumors implanted in humanized Dll4 SCID mice, as described above. Each mouse was implanted subcutaneously (sc) with 5×10^6 human A549 tumor cells (non-small cell lung cancer or “NSCLC”). After the tumors were established in the mice (tumor size of 100-150 mm^3, approximately 29 days after implantation), tumors were measured, randomized and treated with hFc, REGN421, cisplatin or combination of REGN421 and cisplatin. A total of 36 mice were divided into 6 groups (n=6 per cohort). The first group was treated sc with hFc at 2 mg/kg; the second group was treated sc with REGN421 at 2 mg/kg; the third and fourth groups were treated ip with cisplatin at 2.5 and 4.5 mg/kg, respectively; the fifth group was treated sc with REGN421 at 2 mg/kg and ip with cisplatin at 2.5 mg/kg; and the sixth group was treated sc with REGN421 at 2 mg/kg and ip with cisplatin at 4.5 mg/kg. REGN421 was administered every 3-4 days starting on day 29 and mice received three doses total. Cisplatin was administered every 24 hours starting on day 29 and mice received two doses total.\nTo assess the effects of REGN421 and cisplatin as single agents or in combination we measured tumor size (volume), beginning three days before the initial REGN421 treatment, on the day of each agent treatment (days 29, 30, 33, 36) and thereafter every 3-4 days until tumors reached ˜600 mm^3 in size. In vivo tumor size was calculated using the formula (length×width^2)/2."}, "[4]": {"system": "rat C6 tumor cells (glioblastoma cells)", "assay": "C6 glioblastoma tumor growth in SCID mice, REGN577 with docetaxel (Example 3)", "experimental": "The effect of anti-Dll4 antibody in combination with docetaxel (TAXOTERE®) on tumor growth was evaluated on tumors implanted in Severe Combined Immunodeficiency (SCID) mice. Each mouse was implanted subcutaneously (sc) with 1×10^6 rat C6 tumor cells (glioblastoma cells). After the tumors were established (tumor size of ˜100-150 mm^3, approximately 13 days after implantation), the mice were treated with hFc, docetaxel, Dll4 antibody, or a combination of docetaxel plus Dll4 antibody. Since these mice expressed mouse Dll4, the Dll4 Ab used in this experiment was prepared in-house, based on the published sequence (WO 2007/143689), and designated as REGN 577. […] A total of 30 tumor-bearing male mice were randomized into six groups (N=5). […] Starting from the day of initial treatment, body weight and tumors were measured twice a week until the mice were euthanized when tumors reached ˜600 mm^3 in size. Tumor size was calculated using the formula, (length×width^2)/2."}, "[5]": {"system": "human MDA-MB-231 breast tumor cells", "assay": "MDA-MB-231 breast tumor growth in SCID mice, REGN577 with docetaxel (Example 4)", "conditions": "for reduction of tumor growth: at Day 63", "experimental": "The effect of anti-Dll4 antibody in combination with docetaxel (TAXOTERE®, sanofi-aventis) on tumor growth was evaluated on tumors implanted in Severe Combined Immunodeficiency (SCID) mice. Each mouse was implanted ‘pseudo-orthotopically’ (subcutaneously into mammary gland #3) with 5×10^6 human MDA-MB-231 breast tumor cells with MATRIGEL™ (BD Biosciences lot #84540). After the tumors were established in the mice (tumor size of ˜150-200 mm^3, approximately 45 days after implantation), mice were treated with hFc, docetaxel, Dll4 antibody, or a combination of docetaxel plus Dll4 antibody. A total of 25 tumor-bearing […] mice were randomized into five groups (N=5 mice per group). The first group was treated subcutaneously with hFc (at 25 mg/kg) and intravenously (iv) with vehicle; the second group was treated with Dll4 antibody REGN577 sc at 5 mg/kg; the third group was treated with docetaxel iv at 4.5 mg/kg; the fourth group was treated with docetaxel iv at 6 mg/kg; the fifth group was treated with docetaxel iv at 6 mg/kg plus REGN577 sc at 5 mg/kg. Docetaxel and/or Dll4 antibody were administered on the same day. Animals were treated 2 times per week and received a total of 3 doses. Starting from the day of initial treatment, body weight and tumors were measured twice a week until the mice are euthanized. Mice were euthanized when tumors reached ˜600 mm^3 in size. Tumor size was calculated using the formula (length×width^2)/2."}, "human HCT116 tumor cells": {"system": "human HCT116 tumor cells", "assay": "HCT116 xenograft tumor growth, REGN421 with irinotecan (Example 6)", "experimental": "Each mouse was implanted subcutaneously (sc) with 5×10^6 human HCT116 tumor cells. After the tumors were established in the mice (tumor size of ˜150 mm^3, 15 days after implantation), tumors were measured and randomized. The mice were then treated with hFc, REGN421, irinotecan or combination of REGN421 and irinotecan. A total of 30 mice were divided into 6 groups (n=5 per cohort). The first group was treated sc with hFc at 2 mg/kg; the second group was treated sc with REGN421 at 2 mg/kg; the third and fourth groups were treated ip with irinotecan at 7.5 and 25 mg/kg, respectively; the fifth group was treated sc with REGN421 at 2 mg/kg and ip with irinotecan at 7.5 mg/kg; and the sixth group was treated sc with REGN421 at 2 mg/kg and ip with irinotecan at 25 mg/kg. REGN421 was administered every 3-4 days starting on day 15 and mice received three doses total. Irinotecan was administered every 3-4 days starting on day 15 and mice received three doses total.\nas §1, with “irinotecan” for “5-FU”, “combination treatments,” for “combination,”, “are” for “were”, “starting” for “beginning”, “15, 19, 22)” for “22, 26, 29)”, “(length×width^2)/2.” for “(length×width^2)/2 (FIG. 3 and Table 5).”"}, "[6]": {"conditions": "docetaxel 4.5 mg/kg iv (13.5 mg/kg total dose)"}, "[7]": {"conditions": "docetaxel 6 mg/kg iv (18 mg/kg total dose)"}}, "data": [{"compound": "O=c1[nH]cc(F)c(=O)[nH]1", "note": "[5-FU, 5-fluorouracil]", "values": [{"measurement": "TGD", "setting": "[1]; 5-FU 15 mg/kg ip (45 mg/kg total dose)", "value": 4, "unit": "days"}, {"measurement": "TGD", "setting": "[1]; 5-FU 25 mg/kg ip (75 mg/kg total dose)", "value": 2, "unit": "days"}]}, {"compound": "N.N.[Cl][Pt][Cl]", "note": "[Cisplatin, cis-diamminedichloroplatinum]", "values": [{"measurement": "TGI", "setting": "[2]; cisplatin 0.5 mg/kg/dose ip", "value": 60.7, "unit": "%"}, {"measurement": "TGI", "setting": "[2]; cisplatin 0.5 mg/kg/dose ip, listed as cisplatin", "value": 61, "unit": "%"}, {"measurement": "Euthanized", "setting": "[2]; cisplatin 0.5 mg/kg/dose ip", "value": 45, "unit": "days"}, {"measurement": "TGD", "setting": "[2]; cisplatin 0.5 mg/kg/dose ip", "value": 13, "unit": "days"}, {"measurement": "TGI", "setting": "[2]; cisplatin 2 mg/kg/dose ip", "value": 53.8, "unit": "%"}, {"measurement": "TGI", "setting": "[2]; cisplatin 2 mg/kg/dose ip, listed as cisplatin", "value": 54, "unit": "%"}, {"measurement": "Euthanized", "setting": "[2]; cisplatin 2 mg/kg/dose ip", "value": 41, "unit": "days"}, {"measurement": "TGD", "setting": "[2]; cisplatin 2 mg/kg/dose ip", "value": 9, "unit": "days"}, {"measurement": "TGD", "setting": "[3]; cisplatin 2.5 mg/kg ip (5 mg/kg total dose)", "value": 4, "unit": "days"}, {"measurement": "TGD", "setting": "[3]; cisplatin 4.5 mg/kg ip (9 mg/kg total dose)", "value": 11, "unit": "days"}]}, {"compound": "CC(=O)O[C@@]12CO[C@@H]1C[C@H](O)[C@@]1(C)C(=O)[C@H](O)C3=C(C)[C@@H](OC(=O)[C@H](O)[C@@H](NC(=O)OC(C)(C)C)c4ccccc4)C[C@@](O)([C@@H](OC(=O)c4ccccc4)[C@H]21)C3(C)C", "note": "[Docetaxel, docetaxel]", "values": [{"measurement": "TGD", "setting": "[4]; [6]", "value": 6, "unit": "days"}, {"measurement": "TGD", "setting": "[4]; [7]", "value": 7, "unit": "days"}, {"measurement": "TGD", "setting": "[5]; [6]", "value": 4, "unit": "days"}, {"measurement": "reduction of tumor growth", "setting": "[5]; docetaxel 4.5 mg/kg iv", "value": 37, "unit": "%"}, {"measurement": "TGD", "setting": "[5]; [7]", "value": 4, "unit": "days"}, {"measurement": "reduction of tumor growth", "setting": "[5]; docetaxel 6 mg/kg iv", "value": 52, "unit": "%"}]}, {"compound": "CCc1c2c(nc3ccc(OC(=O)N4CCC(N5CCCCC5)CC4)cc13)-c1cc3c(c(=O)n1C2)COC(=O)[C@]3(O)CC", "note": "[Irinotecan, irinotecan]", "values": [{"measurement": "TGD", "setting": "human HCT116 tumor cells; irinotecan 7.5 mg/kg ip (22.5 mg/kg total dose)", "value": 8, "unit": "days"}, {"measurement": "TGD", "setting": "human HCT116 tumor cells; irinotecan 25 mg/kg ip (75 mg/kg total dose)", "value": 16, "unit": "days"}]}]}
